For orientation: solubility means the dissolved amount per volume that the medium holds. A lower solubility goes with little dissolved substance. In general, CC50 refers to the concentration that lowers cell viability or growth by half. The IC50 is the point on the concentration scale where inhibition reaches its midpoint.

Molecules are shown by their SMILES. In brackets after ≈: the same amount, converted by molar mass. A value given as a limit tells only on which side of the number the result lay.

The values that follow come from ChEMBL document CHEMBL4422649, “Soluble-type small-molecule CD4 mimics as HIV entry inhibitors” (Bioorg Med Chem Lett, 2019).

Data set [1] is described as follows: Aqueous solubility of the compound in phosphate buffered saline. The data set is classed as physicochemical.
The nature of data set [2]: Cytotoxicity against human TZM-b1 cells assessed as reduction in cell viability by CCK8 assay. The data set is classed as cell-based.
Data set [3] concerns the target Envelope glycoprotein gp160 (Human immunodeficiency virus 1, UniProt Q6QLK5). The data set can be described thus: Binding affinity to HIV1 cYTA48P envelope glycoprotein gp120 infected in human TZM-b1 cells assessed as induction of conformational changes measured after 48 hrs. The data set is classed as cell-based.
Data set [4] has as its target Envelope glycoprotein gp160 (Human immunodeficiency virus 1) (UniProt Q6QLK5). The data set can be described thus: Binding affinity to HIV1 cYTA48P envelope glycoprotein gp120 infected in human TZM-b1 cells assessed as induction of conformational changes by measuring combination index at 450:1 ratio of test compound to KD-247 measured after 48 hrs. The data set is classed as cell-based.

The target is the same in data set [5]. The data set can be described thus: Binding affinity to HIV1 cYTA48P envelope glycoprotein gp120 infected in human TZM-b1 cells assessed as induction of conformational changes by measuring combination index at 15:1 ratio of test compound to KD-247 measured after 48 hrs. The format is cell-based.

Sequence of Envelope glycoprotein gp160 (Human immunodeficiency virus 1) (Q6QLK5 1-814): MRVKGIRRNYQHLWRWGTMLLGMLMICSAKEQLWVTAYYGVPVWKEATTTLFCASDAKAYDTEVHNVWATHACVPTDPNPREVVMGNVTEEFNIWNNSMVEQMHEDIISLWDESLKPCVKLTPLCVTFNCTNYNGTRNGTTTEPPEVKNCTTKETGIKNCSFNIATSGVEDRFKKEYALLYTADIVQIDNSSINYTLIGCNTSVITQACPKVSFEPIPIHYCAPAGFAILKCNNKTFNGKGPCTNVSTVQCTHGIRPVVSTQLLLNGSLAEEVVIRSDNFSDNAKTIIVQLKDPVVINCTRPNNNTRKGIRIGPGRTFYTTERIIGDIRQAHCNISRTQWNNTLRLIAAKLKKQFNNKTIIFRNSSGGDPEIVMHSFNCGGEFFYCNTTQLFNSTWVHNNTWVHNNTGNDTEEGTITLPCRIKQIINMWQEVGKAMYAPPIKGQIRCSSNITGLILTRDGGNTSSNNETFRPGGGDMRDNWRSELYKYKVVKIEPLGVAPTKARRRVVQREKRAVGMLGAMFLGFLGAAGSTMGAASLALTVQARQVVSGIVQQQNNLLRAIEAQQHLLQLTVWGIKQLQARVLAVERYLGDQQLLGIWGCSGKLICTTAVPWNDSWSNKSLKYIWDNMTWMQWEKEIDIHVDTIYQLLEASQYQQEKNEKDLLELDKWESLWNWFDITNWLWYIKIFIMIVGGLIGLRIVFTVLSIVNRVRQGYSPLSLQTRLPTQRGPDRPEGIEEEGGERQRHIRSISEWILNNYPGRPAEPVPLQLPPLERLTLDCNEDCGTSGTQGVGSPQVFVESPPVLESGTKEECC
Sequence of Envelope glycoprotein gp160 (Q6QLK5 whole entry): as the sequence (Q6QLK5 1-814) above

On to `CC1(C)CC(NC(=O)C(=O)Nc2ccc(Br)nc2)CC(C)(C)N1`, for which the solubility in data set [1] is 3.62 mM (≈ 1390 µg/mL). Moreover, the CC50 in data set [2] is over 300 µM. In addition, the IC50 in data set [3] came to 1.2 µM.

For the compound `CC1(C)CC(NC(=O)C(=O)Nc2cnc(F)c(F)c2)CC(C)(C)N1`, in data set [2], the CC50 is over 300 µM. Also, the IC50 in data set [3] was 7.6 µM.

Compound `CC1(C)CC(NC(=O)C(=O)Nc2ccc(F)nc2)CC(C)(C)N1` had a solubility in data set [1] of 6.67 mM (≈ 2150 µg/mL). Further, the CI in data set [4] is 0.34. In data set [2], the CC50 was over 300 µM. Further, the IC50 in data set [3] came to 2.1 µM.

In the case of `O=C1Nc2ccc(Cl)cc2[C@@](C#CC2CC2)(C(F)(F)F)O1` [EFAVIRENZ], the CC50 in data set [2] came out at 20 µM. Besides, the IC50 in data set [3] was 0.0035 µM.

As for `Cc1cccc(NC(=O)C(=O)NC2CC(C)(C)NC(C)(C)C2)n1`, the CC50 in data set [2] was found to be 257 µM. Besides, the IC50 in data set [3] was over 100 µM.

`O=C(Nc1ccc(Br)nc1)C(=O)NC1CCNC2(CCCCC2)C1` (centres undefined): the CC50 in data set [2] is 180 µM. Further, the IC50 in data set [3] was determined as 1.2 µM.

Regarding `CC1(C)CC(NC(=O)C(=O)Nc2ccnc(Cl)c2)CC(C)(C)N1`, the CI in data set [4] stood at 0.2. In addition, the CC50 in data set [2] was over 300 µM. In data set [3], the half-inhibitory concentration (IC50) stood at 2.3 µM.

On to `CC1(C)CC(NC(=O)C(=O)Nc2ccnc(F)c2)CC(C)(C)N1`, for which, in data set [2], the CC50 was over 300 µM. Besides, the IC50 in data set [3] is 63 µM.

In the case of `CC1(C)CC(NC(=O)C(=O)Nc2ccc(I)cn2)CC(C)(C)N1`, the CC50 in data set [2] is 205 µM. In data set [3], the IC50 was 68 µM.

For `CC1(C)CC(NC(=O)C(=O)Nc2ccc(F)cn2)CC(C)(C)N1`, the CC50 in data set [2] is over 300 µM. Besides, in data set [3], the IC50 was 59 µM.

Turning to `CC1(C)CC(NC(=O)C(=O)Nc2cccnc2Cl)CC(C)(C)N1`, the CC50 in data set [2] was over 300 µM. In data set [3], the IC50 was over 100 µM.

For `CC1(C)CC(NC(=O)C(=O)Nc2ccc(Cl)nc2)CC(C)(C)N1`, the CC50 in data set [2] is over 300 µM. Besides, in data set [3], the IC50 was 4 µM.

On to `CC1(C)CC(NC(=O)C(=O)Nc2ccc(Cl)cn2)CC(C)(C)N1`, for which, in data set [2], the CC50 is over 300 µM. The IC50 in data set [3] is 61 µM.

Regarding `CC1(C)CC(NC(=O)C(=O)Nc2ccc(C(F)(F)F)cn2)CC(C)(C)N1`, in data set [2], the CC50 is over 300 µM. Also, the IC50 in data set [3] was 46 µM.

As for `CC1(C)CC(NC(=O)C(=O)Nc2ccc(Cl)cc2)CC(C)(C)N1`, the solubility in data set [1] turned out to be 1.39 mM (≈ 470 µg/mL). The CC50 in data set [2] came to 116 µM. In addition, the IC50 in data set [3] is 0.17 µM. In addition, in data set [5], the CI turned out to be 0.52.

As for `O=C(Nc1ccc(F)nc1)C(=O)NC1CCNC2(CCCCC2)C1` (centres undefined), in data set [2], the CC50 is over 300 µM. Besides, the IC50 in data set [3] is 0.46 µM.

Consider `CC1(C)CC(NC(=O)C(=O)Nc2ccncc2)CC(C)(C)N1`, for which the CC50 in data set [2] was over 300 µM. Besides, in data set [3], the 50% inhibitory concentration (IC50) is over 100 µM.

For `CC1(C)CC(NC(=O)C(=O)Nc2ccc(Br)cn2)CC(C)(C)N1`, the CC50 in data set [2] is 71 µM. Moreover, the IC50 in data set [3] turned out to be 42 µM.

In the case of `CC1(C)CC(NC(=O)C(=O)Nc2ccnc(Br)c2)CC(C)(C)N1`, in data set [4], the CI was 0.16. For the same compound, the CC50 in data set [2] turned out to be 295 µM. Besides, in data set [3], the IC50 came to 3.6 µM.

Consider `COc1ccc(NC(=O)C(=O)NC2CC(C)(C)NC(C)(C)C2)cn1`, for which the CC50 in data set [2] is over 300 µM. Further, the IC50 in data set [3] came to 27 µM.

Regarding `CC1(C)CC(NC(=O)C(=O)Nc2cccnc2)CC(C)(C)N1`, the CC50 in data set [2] was over 300 µM. For the same compound, in data set [3], the IC50 is over 100 µM.
